pIC50: −log10 of the molar value.
Target: T1, Bifunctional epoxide hydrolase 2 (Homo sapiens, UniProt P34913)
T1 sequence (P34913 whole entry): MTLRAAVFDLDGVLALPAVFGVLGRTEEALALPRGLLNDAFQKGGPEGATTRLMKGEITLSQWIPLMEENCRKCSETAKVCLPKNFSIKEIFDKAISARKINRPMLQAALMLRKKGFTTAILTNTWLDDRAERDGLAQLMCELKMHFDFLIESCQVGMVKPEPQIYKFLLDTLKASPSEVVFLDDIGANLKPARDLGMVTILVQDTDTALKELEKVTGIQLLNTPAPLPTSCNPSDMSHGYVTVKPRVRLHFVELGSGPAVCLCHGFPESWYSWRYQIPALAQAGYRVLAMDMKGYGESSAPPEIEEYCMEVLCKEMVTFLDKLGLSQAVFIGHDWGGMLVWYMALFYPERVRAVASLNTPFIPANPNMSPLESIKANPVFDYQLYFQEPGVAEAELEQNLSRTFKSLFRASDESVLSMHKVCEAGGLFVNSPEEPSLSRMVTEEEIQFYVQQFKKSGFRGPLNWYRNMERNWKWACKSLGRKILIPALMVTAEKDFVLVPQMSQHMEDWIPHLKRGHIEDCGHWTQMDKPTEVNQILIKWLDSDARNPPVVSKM
Experiment: Inhibition of soluble epoxide hydrolase by fluorescence assay

`O=C(Nc1ccc(C(=O)NCCN2CCOCC2)cc1)Nc1ccc(C2CCCCC2)cc1` was tested, and the pIC50 was 7.72.

`O=C(Nc1ccc(Cl)cc1)Nc1cccc(C(=O)N2CCOCC2)c1` showed a pIC50 of 7.31.

For `O=C(Nc1ccc(C(F)(F)F)cc1)Nc1ccc(S(=O)(=O)NCCN2CCOCC2)cc1`, the pIC50 was 8.52.

For `O=C(Nc1ccc(Cl)cc1)Nc1ccc(C(=O)N2CCC(N3CCOCC3)CC2)cc1`, the pIC50 was 6.63.

In the case of `O=C(Nc1ccc(C(F)(F)F)cc1)Nc1cccc(C(=O)c2ccc(C(=O)O)cc2)c1`, the pIC50 was 7.57.

For `O=C(Nc1ccc(C(=O)NCCN2CCCC2)cc1)Nc1ccc(C(F)(F)F)cc1`, the pIC50 was 7.32.

Compound `CN1CCN(C(=O)c2ccc(NC(=O)Nc3ccc(C(F)(F)F)cc3)cc2F)CC1` has a pIC50 of 8.40.

Compound `O=C(Nc1cccc(C(=O)NCCN2CCOCC2)c1)NC12CC3CC(CC(C3)C1)C2` has a pIC50 of 7.21.

`O=C(Nc1ccc(F)cc1)Nc1ccc(C(=O)N2CCOCC2)cc1` showed a pIC50 of 6.77.

`CN1CCN(C(=O)c2ccc(NC(=O)Nc3ccc(C(F)(F)F)cc3)cc2)CC1` was tested, and the pIC50 was 7.85.

`CN(CC(=O)O)C(=O)c1ccc(NC(=O)NC23CC4CC(CC(C4)C2)C3)cc1` showed a pIC50 of 6.70.

Compound `CC(C)N1CCN(C(=O)c2ccc(NC(=O)Nc3ccc(OC(F)(F)F)cc3)cc2)CC1` has a pIC50 of 8.40.

Work on `COCCNC(=O)c1ccc(NC(=O)NC23CC4CC(CC(C4)C2)C3)cc1` yielded a pIC50 of 7.27.

`O=C(Nc1ccccc1)Nc1ccc(C(=O)N2CCOCC2)cc1` was tested, and the pIC50 was 6.60.

Compound `O=C(Nc1ccc(C(=O)Nc2cccnc2)cc1)Nc1ccc(C(F)(F)F)cc1` has a pIC50 of 8.10.

With `CC(C)N1CCN(S(=O)(=O)c2cccc(NC(=O)Nc3ccc(C(F)(F)F)cc3)c2)CC1` the pIC50 was 8.52.

`CN1CCN(C(=O)c2cc(NC(=O)Nc3ccc(C(F)(F)F)cc3)ccc2F)CC1` was tested, and the pIC50 was 7.80.

Work on `O=C(Nc1ccc(C(F)(F)F)cc1)Nc1ccc(C(=O)NCCN2CCCC2)c(F)c1` yielded a pIC50 of 7.72.

`COCCNC(=O)c1cccc(NC(=O)NC23CC4CC(CC(C4)C2)C3)c1` was tested, and the pIC50 was 6.96.

Compound `O=C(O)COCCNC(=O)c1ccc(NC(=O)NC23CC4CC(CC(C4)C2)C3)cc1` has a pIC50 of 7.10.

For `O=C(Nc1ccc(C(=O)NCC(=O)N2CCOCC2)cc1)Nc1ccc(C(F)(F)F)cc1`, the pIC50 was 8.52.

`CN1CCN(C(=O)c2cccc(NC(=O)NC34CC5CC(CC(C5)C3)C4)c2)CC1` was tested, and the pIC50 was 7.44.

In the case of `O=C(Nc1ccccc1)Nc1ccc(C(=O)NCCN2CCOCC2)cc1`, the pIC50 was 6.49.

In the case of `O=C(O)CNC(=O)c1cccc(NC(=O)NC23CC4CC(CC(C4)C2)C3)c1`, the pIC50 was 6.10.

`O=C(Nc1ccc(C(F)(F)F)cc1)Nc1ccc(F)c(C(=O)N2CCOCC2)c1` gave a pIC50 of 8.10.

`O=C(Nc1ccccc1)Nc1cccc(S(=O)(=O)CCCN2CCOCC2)c1` showed a pIC50 of 7.00.

For `CN1CCN(C(=O)c2ccc(NC(=O)Nc3ccc(OC(F)(F)F)cc3)cc2)CC1`, the pIC50 was 8.15.

With `O=C(Nc1ccc(C(F)(F)F)cc1)Nc1cccc(C(=O)Nc2cccnc2)c1` the pIC50 was 7.74.

`O=C(O)CNC(=O)c1ccc(NC(=O)NC23CC4CC(CC(C4)C2)C3)cc1` gave a pIC50 of 6.31.

`O=C(Nc1ccccc1)Nc1ccc(S(=O)(=O)CCCN2CCOCC2)cc1` was tested, and the pIC50 was 7.27.

With `O=C(Nc1ccc(C(=O)N2CCNCC2)cc1)NC12CC3CC(CC(C3)C1)C2` the pIC50 was 7.92.

In the case of `O=C(Nc1ccc(Cl)cc1)Nc1ccc(C(=O)N2CCOCC2)c(F)c1`, the pIC50 was 7.96.

`O=C(Nc1ccc(Cl)cc1)Nc1ccc(F)c(C(=O)NCCN2CCOCC2)c1` gave a pIC50 of 7.42.

Work on `O=C(Nc1ccc(C(F)(F)F)cc1)Nc1cccc(C(=O)NCCN2CCCC2)c1` yielded a pIC50 of 7.17.

In the case of `O=C(Nc1ccc(C(F)(F)F)cc1)Nc1cccc(S(=O)(=O)N2CCOCC2)c1`, the pIC50 was 9.00.

Work on `O=C(Nc1ccc(Cl)cc1)Nc1ccc(F)c(C(=O)NCCN2CCCC2)c1` yielded a pIC50 of 6.12.

In the case of `O=C(Nc1ccc(C(F)(F)F)cc1)Nc1ccc(S(=O)(=O)CCCN2CCOCC2)cc1`, the pIC50 was 9.00.

`CN(CC(=O)O)C(=O)c1cccc(NC(=O)NC23CC4CC(CC(C4)C2)C3)c1` showed a pIC50 of 6.64.

Work on `O=C(Nc1ccc(C(F)(F)F)cc1)Nc1cccc(S(=O)(=O)CCCN2CCOCC2)c1` yielded a pIC50 of 9.00.

`O=C(Nc1ccc(C(F)(F)F)cc1)Nc1cccc(S(=O)(=O)NCCN2CCOCC2)c1` was tested, and the pIC50 was 9.00.

For `O=C(Nc1ccc(OC(F)(F)F)cc1)Nc1ccc(C(=O)N2CCOCC2)cc1`, the pIC50 was 8.40.

For `O=C(Nc1ccc(C(F)(F)F)cc1)Nc1ccc(C(=O)N2CCOCC2)c(F)c1`, the pIC50 was 8.70.

`CN1CCN(C(=O)c2ccc(NC(=O)Nc3ccc(F)cc3)cc2)CC1` was tested, and the pIC50 was 6.80.

`O=C(O)COCCNC(=O)c1cccc(NC(=O)NC23CC4CC(CC(C4)C2)C3)c1` gave a pIC50 of 6.89.

For `O=C(Nc1ccc(Cl)cc1)Nc1cccc(C(=O)N2CCC(N3CCOCC3)CC2)c1`, the pIC50 was 7.33.

`CC(C)N1CCN(C(=O)c2cccc(NC(=O)Nc3ccc(C(F)(F)F)cc3)c2)CC1` showed a pIC50 of 7.82.

With `O=C(Nc1ccc(Cl)cc1)Nc1cccc(C(=O)NCCN2CCOCC2)c1` the pIC50 was 6.89.

In the case of `O=C(Nc1ccccc1)Nc1cccc(C(=O)NCCN2CCOCC2)c1`, the pIC50 was 5.55.

With `O=C(Nc1ccc(Cl)cc1)Nc1ccc(C(=O)N2CCOCC2)cc1` the pIC50 was 7.74.

Work on `O=C(O)CCCNC(=O)c1cccc(NC(=O)Nc2ccc(C(F)(F)F)cc2)c1` yielded a pIC50 of 6.92.

Compound `O=C(Nc1ccc(C(F)(F)F)cc1)Nc1ccc(C(=O)NCCN2CCOCC2)c(F)c1` has a pIC50 of 8.70.

With `O=C(Nc1ccc(C(=O)N2CCOCC2)cc1)Nc1ccc(C(F)(F)F)cc1` the pIC50 was 8.30.

`O=C(Nc1ccc(OC(F)(F)F)cc1)Nc1ccc(C(=O)NCCN2CCOCC2)cc1` was tested, and the pIC50 was 8.70.

`O=C(Nc1ccc(C2CCCCC2)cc1)Nc1cccc(C(=O)NCCN2CCOCC2)c1` gave a pIC50 of 6.55.

`O=C(O)CCCNC(=O)c1ccc(NC(=O)Nc2ccc(C(F)(F)F)cc2)cc1` was tested, and the pIC50 was 7.72.

Work on `O=C(Nc1ccc(C(=O)NCCN2CCOCC2)cc1)NC12CC3CC(CC(C3)C1)C2` yielded a pIC50 of 8.52.

With `CC(C)N1CCN(C(=O)c2ccc(NC(=O)Nc3ccc(C(F)(F)F)cc3)cc2)CC1` the pIC50 was 8.70.

With `O=C(Nc1ccc(C(F)(F)F)cc1)Nc1ccc(F)c(C(=O)NCCN2CCOCC2)c1` the pIC50 was 7.74.

For `O=C(Nc1ccc(C(F)(F)F)cc1)Nc1ccc(S(=O)(=O)N2CCOCC2)cc1`, the pIC50 was 9.00.

In the case of `O=C(Nc1ccc(C(=O)NCCN2CCOCC2)cc1)Nc1ccc(C(F)(F)F)cc1`, the pIC50 was 9.00.

In the case of `O=C(Nc1ccc(C(=O)c2ccc(C(=O)O)cc2)cc1)Nc1ccc(C(F)(F)F)cc1`, the pIC50 was 7.70.

For `O=C(Nc1ccc(F)cc1)Nc1ccc(C(=O)NCCN2CCOCC2)cc1`, the pIC50 was 6.85.

With `O=C(Nc1ccc(Cl)cc1)Nc1ccc(C(=O)NCCN2CCOCC2)cc1` the pIC50 was 7.80.

Compound `O=C(Nc1ccc(C(F)(F)F)cc1)Nc1cccc(C(=O)NCCN2CCOCC2)c1` has a pIC50 of 7.66.

With `CN1CCN(C(=O)c2cccc(NC(=O)Nc3ccc(C(F)(F)F)cc3)c2)CC1` the pIC50 was 7.92.

`CC(C)N1CCN(S(=O)(=O)c2ccc(NC(=O)Nc3ccc(C(F)(F)F)cc3)cc2)CC1` was tested, and the pIC50 was 8.30.

Reference: ChEMBL document CHEMBL1157924, “Exploration of secondary and tertiary pharmacophores in unsymmetrical N,N'-diaryl urea inhibitors of soluble epoxide hydrolase” (Bioorg Med Chem Lett, 2010)
